Reference: paper PMC10060354, “Discovery of a small molecule ligand of FRS2 that inhibits invasion and tumor growth” (Cellular Oncology, 2022)
Converted amounts (≈) assume the structure as drawn. Read-outs that look alike come from different tables or passages of the source.

Legend:
[1] = Microsomal metabolic stability; assay type: in vitro ADME; conditions: human, pooled liver microsomes; for half-life at 1 µM: pH 7.4, liver microsomes; for microsomal CLint at 1 µM: pH 7.4, read-out: Metabolic stability - Intrinsic clearance (CI)
Procedure: Pooled liver microsomes were purchased from Xenotech (H0500) and were stored according to manufacturer’s instructions prior to use. […] A minus co-factor control incubation was included for each compound tested where 0.1 M phosphate buffer pH 7.4 was added instead of NADPH. Two control compounds were included with each species. All incubations were performed singularly for each shortlisted hit. Each compound was incubated for 0, 5, 15, 30 and 45 min. The minus co-factor was incubated for 45 min only. The reactions were stopped by transferring incubate into acetonitrile at the appropriate time points in a 1:3 ratio. The termination plates were centrifuged at 3000 rpm for 20 min at 4 °C to precipitate the protein. Following protein precipitation, the supernatant were combined in cassette of up to 4 compounds, internal standard for MS analysis was added and samples were analyzed using LC–MS/MS. From a plot of In peak area ratio (compound peak area/internal standard peak area) against time, the gradient of the lines were determined. Subsequently, half-life and intrinsic clearance were calculated using the following equations. Eliminationrateconstant(k)=(-gradient)Half-life(t1/2)(min)=0.693/kIntrinsicclearance(CLint)(μl/min/mgprotein)=Vx0.693/t1/2 where V = Incubation volume (µl) / Microsomal protein (mg)

[2] = test system: HepG2 human hepatocellular carcinoma cells; assay: Cell viability (cytotoxicity, MTT) using HepG2; assay type: cell-based; conditions: for MEC: 72h, 3 replicas, NR = No response (Summary sheet)
Procedure: HepG2 human hepatocellular carcinoma cells were plated on 96-well tissue culture polystyrene plates for 24 h prior to dosing of the cells. The shortlisted hits were diluted in DMSO and serial dilutions are made 1% DMSO in growth media. Compounds at 8 concentrations in triplicate was then incubated for 72 h. Appropriate blanks and controls were run alongside the assay. One h prior to the end of the incubation period, the cells were loaded with MTT [yellow; 3-(4,5-dimethyl-2-thiazolyl)-2,5-diphenyl-2H-tetrazolium bromide], the plates were dried and re-solubilized using DMSO. The plates were then scanned at 570 nm using a plate reader.
The minimum effective concentration was determined from the lowest concentration whose mean value exceeds the significance level, provided either a clear dose–response relationship was observed, or at least two consecutive concentration points were above the significance level.

[3] = CaCo-2 permeability (bi-directional); conditions: human
Procedure: Caco-2 cells obtained from the ATCC were used between passage numbers 40—60. Cells were seeded onto Millipore Multiscreen Transwell plates at 1 × 10^5 cells/cm^2. The cells were cultured in DMEM and media was changed every two or three days. On day 20, the permeability study was performed. […] Cells were then incubated with HBSS at the desired pH in both apical and basolateral compartments for 40 min to stabilize physiological parameters.
The fluorescent integrity marker lucifer yellow was also included in the dosing solution. Analytical standards were prepared from test compound DMSO dilutions and transferred to buffer, maintaining a 1% v/v DMSO concentration.
For assessment of A-B permeability, HBSS was removed from the apical compartment and replaced with test compound dosing solution. The apical compartment insert was then placed into a companion plate containing fresh buffer (containing 1% v/v DMSO). For assessment of B-A permeability, HBSS was removed from the companion plate and replaced with test compound dosing solution. Fresh buffer (containing 1% v/v DMSO) was added to the apical compartment insert, which was then placed into the companion plate.
Compound permeability was assessed in duplicate. Compounds of known permeability characteristics were run as controls on each assay plate.
Test and control compounds were quantified by LC–MS/MS cassette analysis using a 7-point calibration with appropriate dilution of the samples. The starting concentration (C0) was determined from the dosing solution and the experimental recovery calculated from C0 and both apical and basolateral compartment concentrations. The integrity of the monolayer throughout the experiment was checked by monitoring lucifer yellow permeation using fluorimetric analysis.
The permeability coefficient (Papp) for each compound was calculated from the following equation: Papp=dQ/dtC0×A where dQ/dt was the rate of permeation of the drug across the cells, C0 was the donor compartment concentration at time zero and A was the area of the cell monolayer. C0 was obtained from analysis of the dosing solution.
Efflux ratio (ER) was calculated from mean A-B and B-A data. This was derived from: ER=Papp(B-A)Papp(A-B)

[4] = Semi-thermodynamic solubility; assay type: physicochemical; conditions: for solubility / solubility thermodynamic: PBS, aqueous buffer, thermodynamic from solid; for solubility: Room Temp, Overnight, LC-MSMS; for solubility (result in words): Supplementary Table 2; for solubility thermodynamic: overnight; for solubility thermodynamic / Solubility (class in words): summary sheet
Procedure: In vitro ADME-T assays were performed by Cyprotex (Cyprotex Discovery, Cheshire, UK). […] The solution was agitated at ambient temperature overnight. The solutions were then centrifuged for 30 min at 3000 rpm at RT. The supernatant was removed and centrifuged for a further 30 min under the same conditions. An aliquot of the resulting supernatant was diluted in 50% methanol in water (containing an internal standard for MS analysis) prior to analysis by LC–MS/MS. […] These stocks were diluted in 50% methanol in water (containing an internal standard for MS analysis) prior to analysis by LC–MS/MS. The solubility of the shortlisted hits was calculated from a linear or quadratic fit of the standard curve.

[5] = test system: DAOY cells; assay: Spheroid invasion assay (SIA), bFGF-induced collagen I invasion; assay type: cell-based, human; conditions: for functional activity in SIA (result in words): DAOY, bFGF-induced, 1, 5 and 10 µM
Outline: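 Spheroids formed over 24–72 h were embedded in collagen I (final 1.75 mg/ml) and stimulated with bFGF (100 ng/ml unless stated), HGF 30 ng/ml or EGF 20 ng/ml with compound in DMSO. Invasion distance was quantified 24–48 h after embedding.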

[6] = read-out: t1/2 of clearance (CL1/2), in vitro
[7] = Caco-2, Mean Papp A-B, Caco-2, summary sheet
[8] = Caco-2, Mean Papp B-A, Caco-2, summary sheet
[9] = Caco-2, pH 7.4, Mean % Recovery A2B, HBSS/HBSS, pH 7.4/7.4
[10] = Caco-2, pH 7.4, Mean % Recovery B2A, HBSS/HBSS, pH 7.4/7.4
[11] = Caco-2, pH 7.4, Mean Papp A2B, HBSS/HBSS, pH 7.4/7.4
[12] = Caco-2, pH 7.4, Mean Papp B2A, HBSS/HBSS, pH 7.4/7.4
[13] = Caco-2, pH 7.4, Papp A2B Replicate 1, HBSS/HBSS, pH 7.4/7.4
[14] = Caco-2, pH 7.4, Papp A2B Replicate 2, HBSS/HBSS, pH 7.4/7.4
[15] = Caco-2, pH 7.4, Papp B2A Replicate 1, HBSS/HBSS, pH 7.4/7.4
[16] = Caco-2, pH 7.4, Papp B2A Replicate 2, HBSS/HBSS, pH 7.4/7.4
[17] = read-out: Solubility Replicate 1
[18] = read-out: Solubility Replicate 2
[19] = read-out: Solubility Replicate 3
[20] = read-out: Solubility Replicate 4
[21] = Homo sapiens, Daoy, DAOY cells, n = 3 technical replicas, read-out: EC50 for the inhibition of bFGF-induced collagen I invasion

| Compound | half-life at 1 µM ([1]; read-out: t1/2) | half-life at 1 µM [1, 6] | microsomal CLint at 1 µM [1] | toxicity in the MTT assay (result in words) [2] | MEC [2] | MTT (MEC) Minimum effective concentration ([2]; 72 h, summary sheet) | efflux ratio at 120 min, 10 μM ([3]; Caco-2) | Papp A→B at 120 min, 10 μM [3, 7] | Papp B→A at 120 min, 10 μM [3, 8] | recovery at 120 min, 10 µM [3, 9] | recovery at 120 min, 10 µM [3, 10] | Papp B→A at 120 min, 10 μM [3, 12] | Papp B→A at 120 min, 10 μM [3, 15] | Papp B→A at 120 min, 10 μM [3, 16] | solubility ([4]; read-out: Mean Solubility) | solubility [4, 17] | solubility [4, 18] | solubility [4, 19] | solubility thermodynamic [4] | Solubility (class in words) [4] | also measured |
| --- | --- | --- | --- | --- | --- | --- | --- | --- | --- | --- | --- | --- | --- | --- | --- | --- | --- | --- | --- | --- | --- |
| Cc1[nH]nc(-c2ccc(O)c(C)c2O)c1-c1nc2ccccc2s1 [Compound E12] | 5.52 min | 5.52 min | 251 µL/min/mg | moderate toxicity | 15.6 µM | 15.6 µM | 5.13 | 4.53 ×10⁻⁶ cm/s | 23.2 ×10⁻⁶ cm/s | 102% | 65.6% | 23.2 ×10⁻⁶ cm/s | 22 ×10⁻⁶ cm/s | 24.4 ×10⁻⁶ cm/s | > 100 µM | > 100 µM | > 100 µM | > 100 µM | > 100 µM | Freely | efflux ratio at 120 min, 10 μM ([3]; Caco-2, pH 7.4): 5.13; Papp A→B at 120 min, 10 μM [3, 11]: 4.53 ×10⁻⁶ cm/s; Papp A→B at 120 min, 10 μM [3, 13]: 3.77 ×10⁻⁶ cm/s; Papp A→B at 120 min, 10 μM [3, 14]: 5.28 ×10⁻⁶ cm/s; solubility [4, 20]: > 100 µM; solubility (result in words) [4]: freely soluble; functional activity in SIA (result in words) [5]: comparable inhibition of invasion; EC50 [5, 21]: 18.2 µM |
| N#Cc1c(Cl)cc(O)c2c1C1C=CCC1C(c1ccc(Cl)cc1)N2 (stereo not drawn) [Compound 14] | 1.64 min | – | 845 µL/min/mg | – | 3.93 µM | 3.93 µM | – | – | 2.31 ×10⁻⁶ cm/s | 81.1% | 50.7% | 2.31 ×10⁻⁶ cm/s | 3.4 ×10⁻⁶ cm/s | 1.22 ×10⁻⁶ cm/s | 24.8 µM (≈ 8.86 µg/mL) | 25 µM (≈ 8.93 µg/mL) | 16.6 µM (≈ 5.93 µg/mL) | 27.2 µM (≈ 9.72 µg/mL) | 24.8 µM (≈ 8.86 µg/mL) | Sparingly | solubility [4, 20]: 30.3 µM (≈ 10.8 µg/mL); functional activity in SIA (result in words) [5]: reduced invasion comparable to the parent compound 7 |
| O=[N+]([O-])c1c(Cl)cc(O)c2c1C1C=CCC1C(c1ccc(Cl)cc1)N2 (stereo not drawn) [Compound 7] | 3.62 min | 3.62 min | 383 µL/min/mg | moderately toxic | 4.38 µM | 4.38 µM | 2.84 | 3.59 ×10⁻⁶ cm/s | 10.2 ×10⁻⁶ cm/s | 15.3% | 37.8% | 10.2 ×10⁻⁶ cm/s | 8.39 ×10⁻⁶ cm/s | 12 ×10⁻⁶ cm/s | 10.4 µM (≈ 3.92 µg/mL) | 11.8 µM (≈ 4.45 µg/mL) | 9.33 µM (≈ 3.52 µg/mL) | 9.97 µM (≈ 3.76 µg/mL) | 10.4 µM (≈ 3.92 µg/mL) | Sparingly | efflux ratio at 120 min, 10 μM ([3]; Caco-2, pH 7.4): 2.84; Papp A→B at 120 min, 10 μM [3, 11]: 3.59 ×10⁻⁶ cm/s; Papp A→B at 120 min, 10 μM [3, 13]: 3.41 ×10⁻⁶ cm/s; Papp A→B at 120 min, 10 μM [3, 14]: 3.76 ×10⁻⁶ cm/s; solubility (result in words) [4]: sparingly soluble; functional activity in SIA (result in words) [5]: performed equally well as 3.18; EC50 ([5]; Homo sapiens, Daoy, 100 ng/ml bFGF, read-out: Collagen I invasion EC50): 2.54 µM; IC50 ([5]; Homo sapiens, DAOY wt): 2.76 µM |
| CC(C)C[C@@H](CO)NCc1cc(O)c2cc(F)ccc2n1 [Compound 3.14] | 29.1 min | 29 min | 47.6 µL/min/mg | no toxicity | – | No response | 8.64 | 4.7 ×10⁻⁶ cm/s | 40.6 ×10⁻⁶ cm/s | 70.2% | 73.4% | 40.6 ×10⁻⁶ cm/s | 40 ×10⁻⁶ cm/s | 41.2 ×10⁻⁶ cm/s | > 100 µM | > 100 µM | > 100 µM | > 100 µM | > 100 µM | Freely | MTT (AC50) Conc at which 50% of maximum efficacy is reached ([2]; 72 h, summary sheet): No response; efflux ratio at 120 min, 10 μM ([3]; Caco-2, pH 7.4): 8.64; Papp A→B at 120 min, 10 μM [3, 11]: 4.7 ×10⁻⁶ cm/s; Papp A→B at 120 min, 10 μM [3, 13]: 4.69 ×10⁻⁶ cm/s; Papp A→B at 120 min, 10 μM [3, 14]: 4.71 ×10⁻⁶ cm/s; solubility [4, 20]: > 100 µM; solubility (result in words) [4]: freely soluble; EC50 ([5]; DAOY cells, n = 3 technical replicas, read-out: EC50 for the inhibition of bFGF-induced collagen I invasion): 5.92 µM; EC50 [5, 21]: 5.92 µM |
